Article PMC9146423, “Discovery of Nitro-azolo[1,5-a]pyrimidines with Anti-Inflammatory and Protective Activity against LPS-Induced Acute Lung Injury” (Pharmaceuticals, 2022)

Legend:
[1] = system: peritoneal macrophages of C57bl/6j mice; experiment: Cytotoxicity, lactate dehydrogenase (LDH) activity in cell supernatants; format: cell-based, mouse
Procedure: (§1) Peritoneal macrophages (PM) were isolated from the peritoneal exudate of 30 male C57bl/6j mice. To accumulate PM, 1 mL of 3% peptone solution was injected intraperitoneally. After 3 days, the mice were euthanized by cervical dislocation. Cells of peritoneal exudate were obtained by aseptic washing of the abdominal cavity with 5 mL of sterile Hanks’s solution (+4–6 °C) without calcium and magnesium ions. The total number and viability of cells were assessed in a Goryaev counting chamber (Russia) with a 0.4% trypan blue staining (Sigma-Aldrich, St. Louis, MO, USA). The cell concentration was adjusted to 1.0 × 10^6 cells/mL in DMEM (Gibco) supplemented with 2 mM L-glutamine (Gibco, Waltham, MA, USA), 10% heat-inactivated fetal bovine serum (BioClot, Bavaria, Germany), 100 U/mL penicillin, and […] streptomycin (Gibco) and plated 200 μL/well in 96-well transparent plates (SPL Life Sciences Co., Ltd., Pocheon-si, Korea). After 2 h at 37 °C in a humidified atmosphere with 5% CO2, the wells were washed to remove non-adherent cells. After 24 h of incubation, 20 μL of the supernatants were substituted with 20 μL of solutions of test compounds, followed by E. coli O127:B8 LPS (100 ng/mL final concentration) after 30 min. The experiments were run in 3 independent replicates.
(§2) The activity of lactate dehydrogenase (LDH) in a cell culture medium served as a marker of membrane permeability and cell death. […] Then, 25 μL of a 6.48 mM pyruvate solution was added to the mixture. The optical density was followed at a wavelength of 340 nm for 20 min. The MTT-test was performed 24 h after incubations of cells with tested compounds. Briefly, 20 μL of MTT solution was added to each well, incubated at 37 °C in a humidified atmosphere containing 5% CO2 for 4 h. The culture medium was removed, the cells were lysed, and formazan crystals were dissolved in 150 μL DMSO. The plates were shaken at room temperature for 10 min, and the optical density was measured in a microplate reader Infinite M200 PRO (Tecan, Grödig, Austria) at a wavelength of 565 nm.

[2] = as above; format: cell-based, mouse; conditions: male, C57bl/6j, mouse, LPS-stimulated peritoneal macrophages
Procedure: as §1, §2

[3] = system: LPS-stimulated peritoneal macrophages of C57bl/6j mice; experiment: IL-6 secretion by LPS-stimulated peritoneal macrophages (ELISA); format: cell-based; conditions: Mus musculus, Peritoneal macrophage, 95% C.I. 1.43-9.87 μM
Procedure: as §1, with “After 24 h of incubation, 20 μL of the supernatants were substituted with 20 μL of solutions of test compounds, followed by E. coli O127:B8 LPS (100 ng/mL final concentration) after 30 min. The experiments were run in 3 independent replicates.” left out
The cell supernatant was collected and centrifuged at 1000 g for 20 min in a 2–16PK centrifuge (Sigma, Osterode am Harz, Germany). The concentrations of IL-6 and TNF-α were determined by ELISA using commercial kits (Cloud-clone, Houston, TX, USA) with a microplate reader Infinite M200 PRO (Tecan, Grödig, Austria).

[4] = system: LPS-stimulated peritoneal macrophages of C57bl/6j mice; experiment: Inhibition of LPS-induced NO synthesis (nitrite accumulation, Griess reagent) in peritoneal macrophages; format: cell-based, mouse; conditions: Mus musculus, Peritoneal macrophage
Procedure: as §1
The accumulation of the nitrite anion (a stable end product of NO decomposition produced by iNOS) in supernatants was determined using a standard Griess reagent. Briefly, 50 μL of supernatants were collected 22 h after incubation of PM, and the test and control compounds were mixed with 50 μL of 1% […] in 2.5% H3PO4 and 50 μL of 0.1% N-(1-naphthyl) ethylenediamine in 2.5% H3PO4. After incubation at 23 °C for 10 min in an orbital shaker, the optical density was determined at a wavelength of 550 nm with a microplate reader Infinite M200 PRO (Tecan, Grödig, Austria).

[5] = system: LPS-stimulated peritoneal macrophages of C57bl/6j mice; experiment: Cell viability of LPS-stimulated macrophages, MTT test; format: cell-based; conditions: male, C57bl/6j, mouse, 24 h, 100 μM
Procedure: as §1
(§3) The activity of lactate dehydrogenase (LDH) in a cell culture medium served as a marker of membrane permeability and cell death. Aliquotes of supernatants were taken after 24 h of inoculation with test compounds, mixed with 250 μL of […] NADH solution in 54 mM phosphate-buffered saline (pH 7.5). Then, 25 μL of a 6.48 mM pyruvate solution was added to the mixture. The optical density was followed at a wavelength of 340 nm for 20 min. The MTT-test was performed 24 h after incubations of cells with tested compounds. Briefly, 20 μL of MTT solution was added to each well, incubated at 37 °C in a humidified atmosphere containing 5% CO2 for 4 h. The culture medium was removed, the cells were lysed, and formazan crystals were dissolved in 150 μL DMSO. The plates were shaken at room temperature for 10 min, and the optical density was measured in a microplate reader Infinite M200 PRO (Tecan, Grödig, Austria) at a wavelength of 565 nm.

[6] = as above; format: cell-based; conditions: male, C57bl/6j, mouse
Procedure: as §1, §3

[7] = system: peritoneal macrophages of C57bl/6j mice; experiment: Yeast phagocytosis assay and macrophage spreading; format: cell-based, mouse
Procedure: Next, we evaluated lead compound 9g for immunodepressant activity in parallel with the reference drug dexamethasone. Yeast phagocytosis was assessed by microscopic examination as the number of phagocytes per 100 macrophages and as the number of phagocytosed yeast cells in each phagocyte. Cell viability was assessed as lactate dehydrogenase activity in cell supernatants, which correlates with increased cell membrane permeability.
Peritoneal macrophages of C57bl/6j mice were cultured in a 24-well plate at a volume of 500 μL/well (1 × 10^5 cells/mL) for 24 h. Test compounds or DMSO were added to wells in triplicate followed by 50 μL of 1% yeast suspension, and the plates were incubated for 40 min. After 24 or 72 h, the medium was removed. The cells were fixed with May–Grunwald methanol dye and stained with Azur-Eosin in Romanovsky’s modification for 45 min at room temperature, washed, air-dried, and analyzed using a microscope Mikmed-6 (Russia), equipped with a digital camera. The study was performed in three technical replicates and two series; 100 macrophages were processed in each sample to count the captured yeast cells. Macrophage spreading was assessed as a number of pseudopodia.

Cc1nc2nnnn2c(NCCc2ccc(O)cc2)c1[N+](=O)[O-] [Compound 9g, N-[2-(4-Hydroxyphenyl)ethyl]-5-methyl-6-nitrotetrazolo-[1,5-a]pyrimidin-7-amine]
Cytotoxic properties during the phagocytosis experiment (LDH) ([1]; up to 72 h of incubation): No cytotoxic properties were noted | Effect on viability of the macrophages ([1]; up to a concentration of 50 μM): did not affect the viability | CC50 at 24 h [2]: > 100 µM | IC50 [3]: 3.72 µM | inhibition at 100 µM ([4]; 22 h, 100 μM, m ± SD, read-out: Inhibition of NO Synthesis vs. LPS Control): 58.5 ± 5.93% | IC50 ([4]; LPS-stimulated peritoneal macrophages): 3.72 µM | Cell Viability vs. LPS Control, MTT Test [5]: 84.65 ± 5.83% | CC50 at 24 h [6]: > 100 µM | Suppression of phagocytosis ([7]; after 24-h of incubation, data not shown): not | Decrease of the mean number of phagocytosed yeast cells ([7]; after 72 h of incubation): 16% | Macrophage phagocytic activity (in words) ([7]; after 72 h of incubation): preserved macrophage phagocytic activity | Macrophage spreading ([7]; yeast-stimulated, visually scored): reduced it to a nearly unstimulated level
